Assay results reported in patent US4087450A, “(Polychlorophenoxy) methyl esters of thiocyanic acid” (priority 1977, dated 1978).
In brackets after ≈: the same amount, converted by molar mass. Values belong to the compound of their own block, whether it stands above or below them.

How the values were obtained:
[1] = system: Candida albicans; test: conventional agar dilution test, 100% growth inhibition; type: cell-based; conditions: read-out: Concentration for 100% Growth Inhibition
Text: (§1) In representative operations, the compounds of the present invention when tested for their activity as antimicrobials using conventional agar dilution tests give complete growth inhibition against C. albicans, T. mentagrophytes, C. pelliculosa, R. nigricans, C. ips, C. fragans and Trichoderma sp. 42. The following Table provides test data summaries in comparison with the activity of art compounds.

[2] = system: Candida pelliculosa; test: as above; type: cell-based; conditions: Hansenula anomala, read-out: Concentration for 100% Growth Inhibition
Text: as §1

[3] = system: Ceratocystis ips; test: as above; type: cell-based; conditions: read-out: Concentration for 100% Growth Inhibition
Text: as §1

[4] = system: Pullularia pullulans; test: as above; type: cell-based; conditions: read-out: Concentration for 100% Growth Inhibition
Text: as §1

[5] = system: Rhizopus nigricans; test: as above; type: cell-based; conditions: Rhizopus stolonifer, read-out: Concentration for 100% Growth Inhibition
Text: as §1

[6] = system: Trichoderma species 42; test: as above; type: cell-based; conditions: Trichoderma species 42, agar dilution; read-out: Concentration for 100% Growth Inhibition
Text: as §1

[7] = system: Trichophyton mentagrophytes; test: as above; type: cell-based; conditions: read-out: Concentration for 100% Growth Inhibition
Text: as §1

[8] = volatility determination, retention on glass fiber paper; type: physicochemical; conditions: 50° C. oven for 7 days, average of duplicate determinations
Description: (§2) To determine volatility and water solubility of the compounds, the following procedure was used: A 0.1 g. portion of each compound was dissolved in 2.0 ml. acetone. One-half of this solution was placed on a dry, pre-weighed, 7 cm. diameter sheet of glass fiber paper (Reeve Angel #934AH). The fiber paper was allowed to air dry for 24 hours and was re-weighed to determine the amount (0.05 g.) of the compound present. The other half of the solution was used to impregnate similarly another sheet of glass fiber paper. For the volatility determination, one of the papers was placed in a 50° C. oven for 7 days, removed, air cooled for 24 hours, and weighed. The percent retention given in Table II was calculated by the following formula: [formula]

[9] = water-leachability determination, retention on glass fiber paper; type: physicochemical; conditions: leached 8 hours, 20° C. water at 10 ml./sec., average of duplicate determinations
Description: as §2
For the water-leachability determination, the second impregnated paper was leached for 8 hours with 20° C. water running at 10 ml./sec. The fiber paper was allowed to air dry for 24 hours, then re-weighed. The percent retention was also calculated by the above formula. The figures recorded in following Table II represent the average of duplicate determinations.

[10] = system: mold growth; test: outdoor exposure test, preservation of acrylic latex paint (modified ASTM D-1006); set-up: key to mold growth rating, 4 Mo. / mold growth rating, 5 Mo. / mold growth rating, 8 Mo.: 1: No mold growth; 2: Trace, <5% growth; 3: Trace, 5-10% growth; 4: 10-25% growth; 25-50% growth; 6: 50-70% growth; 70-90% growth; 8: 90-95% growth; 9: 100% growth; 100% growth, severe; conditions: for mold growth rating, 4 Mo.: 4 months outdoor; for mold growth rating, 5 Mo.: 5 months outdoor; for mold growth rating, 8 Mo.: 8 months outdoor; for mold growth rating, 10 Mo.: 10 months outdoor
Text: (§3) Using a modification of ASTM D-1006, clear sapwood ponderosa pine boards 1/2 inch × 6 inches × 36 inches were primed with an unpreserved alkyd coating. A single coat of paint (alkyd or acrylic latex) incorporating compound (I) was brush applied. The boards were then exposed to the elements at Lake Jackson, Texas, and periodically readings were taken using the following rating scale: […]

[11] = system: mold growth; test: outdoor exposure test, preservation of alkyd paint (modified ASTM D-1006); set-up: key to mold growth rating, 8 Mo. / mold growth rating, 4 Mo. / mold growth rating, 5 Mo.: 1: No mold growth; 2: Trace, <5% growth; 3: Trace, 5-10% growth; 4: 10-25% growth; 25-50% growth; 6: 50-70% growth; 70-90% growth; 8: 90-95% growth; 9: 100% growth; 100% growth, severe; conditions: for mold growth rating, 4 Mo.: 4 months outdoor; for mold growth rating, 5 Mo.: 5 months outdoor; for mold growth rating, 8 Mo.: 8 months outdoor; for mold growth rating, 10 Mo.: 10 months outdoor
Text: as §3

[12] = system: Algae Spores; test: marine antifoulant activity, fouling of test panels; conditions: Compound I 0.14 g. in panel, TBTO 0.13 g. in panel, seawater
Description: (§4) The compounds of this invention also repel or are toxic towards lower forms of marine life such as barnacles, and thereby function effectively as marine antifoulants. In evaluating marine antifoulant activity, a comparison of compound (I) vs. a standard antifouling toxicant, bis(tri-n-butyltin) oxide (TBTO), was carried out by treating pre-weighed 21/2 inch by 21/2 inch by 1/4 inch porous silica test panels with a solution of the individual compound in methyl isobutyl ketone, allowing the solvent to air dry to constant weight, and then immersing the panels in seawater at a subtropical location which has dense populations of fouling organisms. Under these conditions, an untreated panel became completely fouled after two months' exposure.

[13] = system: Algae; test: as above; conditions: Compound I 0.14 g. in panel, TBTO 0.13 g. in panel, seawater
Description: as §4

[14] = system: Barnacles; test: as above; conditions: Compound I 0.14 g. in panel, TBTO 0.13 g. in panel, seawater
Description: as §4

[15] = system: Encrusting Bryozoans; test: as above; conditions: Compound I 0.14 g. in panel, TBTO 0.13 g. in panel, seawater
Description: as §4

[16] = system: Hydroids; test: as above; conditions: Compound I 0.14 g. in panel, TBTO 0.13 g. in panel, seawater
Description: as §4

[17] = system: Microfouling; test: as above; conditions: Compound I 0.14 g. in panel, TBTO 0.13 g. in panel, seawater
Description: as §4

[18] = system: Oysters; test: as above; conditions: Compound I 0.14 g. in panel, TBTO 0.13 g. in panel, seawater
Description: as §4

[19] = system: Tube Worms; test: as above; conditions: Compound I 0.14 g. in panel, TBTO 0.13 g. in panel, seawater
Description: as §4

[20] = system: Tunicates; test: as above; conditions: Compound I 0.14 g. in panel, TBTO 0.13 g. in panel, seawater
Description: as §4

[21] = system: important fungi; test: fungicidal activity against important fungi; conditions: in words

MIC [1]: 10 µg/mL (≈ 37.2 µM) | MIC [2]: 10 µg/mL (≈ 37.2 µM) | MIC [3]: 1 µg/mL (≈ 3.72 µM) | MIC [4]: 10 µg/mL (≈ 37.2 µM) | MIC [5]: 10 µg/mL (≈ 37.2 µM) | MIC [6]: 10 µg/mL (≈ 37.2 µM) | MIC [7]: 0.1 µg/mL (≈ 0.372 µM) | Percent Retention, Volatility [8]: 74% | Percent Retention, Water Extraction [9]: 92%
Compound: N#CSCOc1cc(Cl)c(Cl)cc1Cl [Compound I, Thiocyanic Acid, (2,4,5-Trichlorophenoxy)Methyl Ester]
mold growth rating, 4 Mo. ([10]; 0.5 wt. % (I)): 1 | mold growth rating, 5 Mo. ([10]; 0.5 wt. % (I)): 1 | mold growth rating, 8 Mo. ([10]; 0.5 wt. % (I)): 1 | mold growth rating, 10 Mo. ([10]; 0.5 wt. % (I)): 2 (Trace, <5% growth) | mold growth rating, 4 Mo. ([10]; 1.0 wt. % (I)): 1 | mold growth rating, 5 Mo. ([10]; 1.0 wt. % (I)): 1 | mold growth rating, 8 Mo. ([10]; 1.0 wt. % (I)): 1 | mold growth rating, 10 Mo. ([10]; 1.0 wt. % (I)): 2 (Trace, <5% growth) | mold growth rating, 4 Mo. ([11]; 0.4 wt. % (I)): 9 (100% growth) | mold growth rating, 5 Mo. ([11]; 0.4 wt. % (I)): 9 (100% growth) | mold growth rating, 8 Mo. ([11]; 0.4 wt. % (I)): 1 | mold growth rating, 10 Mo. ([11]; 0.4 wt. % (I)): 2 (Trace, <5% growth) | mold growth rating, 4 Mo. ([11]; 0.6 wt. % (I)): 8 (90-95% growth) | mold growth rating, 5 Mo. ([11]; 0.6 wt. % (I)): 9 (100% growth) | mold growth rating, 8 Mo. ([11]; 0.6 wt. % (I)): 1 | mold growth rating, 10 Mo. ([11]; 0.6 wt. % (I)): 2 (Trace, <5% growth) | mold growth rating, 4 Mo. ([11]; 0.8 wt. % (I)): 4 (10-25% growth) | mold growth rating, 5 Mo. ([11]; 0.8 wt. % (I)): 3 (Trace, 5-10% growth) | mold growth rating, 8 Mo. ([11]; 0.8 wt. % (I)): 1 | mold growth rating, 10 Mo. ([11]; 0.8 wt. % (I)): 2 (Trace, <5% growth) | mold growth rating, 4 Mo. ([11]; 1.0 wt. % (I)): 1 | mold growth rating, 5 Mo. ([11]; 1.0 wt. % (I)): 1 | mold growth rating, 8 Mo. ([11]; 1.0 wt. % (I)): 1 | mold growth rating, 10 Mo. ([11]; 1.0 wt. % (I)): 2 (Trace, <5% growth) | Percent Fouling of Test Panels [12]: 30% | Percent Fouling of Test Panels [13]: 0% | Percent Fouling of Test Panels [14]: 0% | Percent Fouling of Test Panels [15]: 0% | Percent Fouling of Test Panels [16]: 0% | Percent Fouling of Test Panels [17]: 0% | Percent Fouling of Test Panels [18]: 0% | Percent Fouling of Test Panels [19]: 0% | Percent Fouling of Test Panels [20]: 0%

MIC [1]: 100 µg/mL (≈ 427 µM) | MIC [2]: 10 µg/mL (≈ 42.7 µM) | MIC [3]: 10 µg/mL (≈ 42.7 µM) | MIC [4]: 10 µg/mL (≈ 42.7 µM) | MIC [5]: 10 µg/mL (≈ 42.7 µM) | MIC [6]: 10 µg/mL (≈ 42.7 µM) | MIC [7]: 1 µg/mL (≈ 4.27 µM) | Percent Retention, Volatility [8]: 6% | Percent Retention, Water Extraction [9]: 52%
Compound: N#CSCOc1ccc(Cl)cc1Cl [Compound V]

MIC [1]: 10 µg/mL (≈ 33 µM) | MIC [2]: 10 µg/mL (≈ 33 µM) | MIC [3]: 1 µg/mL (≈ 3.3 µM) | MIC [4]: 1 µg/mL (≈ 3.3 µM) | MIC [5]: 100 µg/mL (≈ 330 µM) | MIC [6]: 1 µg/mL (≈ 3.3 µM) | MIC [7]: 1 µg/mL (≈ 3.3 µM) | Percent Retention, Volatility [8]: 49% | Percent Retention, Water Extraction [9]: 96%
Compound: N#CSCOc1c(Cl)cc(Cl)c(Cl)c1Cl [II, Thiocyanic Acid, (2,3,4,6-Tetrachlorophenoxy)Methyl Ester]

MIC [1]: 500 µg/mL (≈ 2500 µM) | MIC [2]: 500 µg/mL (≈ 2500 µM) | MIC [3]: 500 µg/mL (≈ 2500 µM) | MIC [4]: 500 µg/mL (≈ 2500 µM) | MIC [5]: 500 µg/mL (≈ 2500 µM) | MIC [6]: 100 µg/mL (≈ 501 µM) | MIC [7]: 100 µg/mL (≈ 501 µM) | Percent Retention, Volatility [8]: 2% | Percent Retention, Water Extraction [9]: 80%
Compound: N#CSCOc1ccc(Cl)cc1 [III]

MIC [1]: 500 µg/mL (≈ 2340 µM) | MIC [2]: 500 µg/mL (≈ 2340 µM) | MIC [3]: 500 µg/mL (≈ 2340 µM) | MIC [4]: 500 µg/mL (≈ 2340 µM) | MIC [5]: 500 µg/mL (≈ 2340 µM) | MIC [6]: 100 µg/mL (≈ 468 µM) | MIC [7]: 100 µg/mL (≈ 468 µM) | Percent Retention, Volatility [8]: 12% | Percent Retention, Water Extraction [9]: 71%
Compound: Cc1cc(OCSC#N)ccc1Cl [IV]

Compound: CCC[CH2][Sn]([CH2]CCC)([CH2]CCC)[O][Sn]([CH2]CCC)([CH2]CCC)[CH2]CCC [TBTO, bis(tri-n-butyltin) oxide, reference compound]
Percent Fouling of Test Panels [12]: 20% | Percent Fouling of Test Panels [13]: 0% | Percent Fouling of Test Panels [14]: 0% | Percent Fouling of Test Panels [15]: 0% | Percent Fouling of Test Panels [16]: 0% | Percent Fouling of Test Panels [17]: 0% | Percent Fouling of Test Panels [18]: 0% | Percent Fouling of Test Panels [19]: 0% | Percent Fouling of Test Panels [20]: 0%

Compound: N#CSCOc1c(Cl)c(Cl)c(Cl)c(Cl)c1Cl [VI]
MIC [1]: > 500 µg/mL | MIC [2]: > 500 µg/mL | MIC [3]: > 500 µg/mL | MIC [4]: > 500 µg/mL | MIC [5]: > 500 µg/mL | MIC [6]: > 500 µg/mL | MIC [7]: 100 µg/mL (≈ 296 µM) | Percent Retention, Volatility [8]: 97% | Percent Retention, Water Extraction [9]: 98%

Compound: N#CSCOc1c(Cl)c(Cl)c(Cl)c(Cl)c1Cl [pentachloro-(thiocyanatomethoxy)- benzene]
fungicidal activity against important fungi, relative to the compounds of this invention [21]: a small fraction of that of the compounds herein claimed
